Measurements published in patent US20050244360A1, “Cosmetic composition for greasy skin care, containing a carboxylic fatty acid or a derivative thereof” (L'OREAL, priority 2003, published 2005).

Legend:
[1] = tested on: sebocytes from an immortalized human line; experiment: Reduction of lipogenesis: lipids produced by immortalized human sebocytes, RED NILE dye fluorescence; format: cell-based; details: for QUANTITY OF LIPIDS MEASURED / REDUCTION IN LIPOGENESIS/CONTROL: 2 days of treatment; for QUANTITY OF LIPIDS MEASURED: control = 100; for REDUCTION IN LIPOGENESIS/CONTROL: vs culture medium control
Method: The test which was developed consisted of measuring, after 2 days of treatment, the quantity of lipids produced by sebocytes from an immortalized human line (in the presence or absence of active agents). The fluorescence emitted by RED NILE dye was measured at two distinct wavelengths to quantify the amount of characteristic neutral lipids of the sebum. Glucocorticoids are known to reduce the production of sebum in non […] subjects (Leveque, J. L. et al., (1991)). Thus, cortisol was selected as a reference, while the culture medium alone was selected as the control (no supplemental excipient was added either to the cortisol or to the azelaic acid, these latter being dissolved in the culture medium under the test conditions). […] Its activity was moderate compared with the pharmaceutical reference. Nevertheless, it should have a significant cosmetic action in a suitable formulation, if necessary by making repeated applications.

[2] = tested on: SZ 95 sebocytes; experiment: Tolerability: cytotoxicity by production of LDH in the culture medium; format: cell-based, human; details: 1 μM
Method: The tolerability of azelaic acid was measured by measuring the cytotoxicty of the product using SZ 95 sebocytes (Zouboulis, Seltmann et al., 1999). The test conditions were the same as those given in Example 1. The cytotoxicity was measured by the production of LDH in the culture medium.

[3] = tested on: cutaneous micrococcaceae; details: topical gel containing 20% azelaic acid, male subjects with clinical acne; cited from earlier work
[4] = tested on: sebum excretion; details: topical 20% azelaic acid gel, individuals with physiological acne; cited from earlier work
[5] = tested on: sebum production; details: cited from earlier work
[6] = tested on: human keratinocytes; details: concentrations of the order of 1 mM; cited from earlier work
[7] = tested on: Propionibacterium sp; details: topical gel containing 20% azelaic acid, male subjects with clinical acne; cited from earlier work
[8] = tested on: excreted sebum; details: doses used to treat acne (SKINOREN); subjects with acne, seborrheic skin without acne, normoseborrheic; cited from earlier work

SMILES	QUANTITY OF LIPIDS MEASURED ([1]; 0.1 μM)	REDUCTION IN LIPOGENESIS/CONTROL ([1]; 0.1 μM)	sebocyte survival (in words) [2]	LDH VARIATION/CONTROL ([2]; same conditions as Example 1)	reduction of the number of cutaneous micrococcaceae, factor [3]	effect on sebum excretion (in words) [4]	ability to reduce sebum production (in words) [5]	effect on proliferation of human keratinocytes (in words) [6]	reduction of the number of Propionibacterium sp, factor [7]	effect on quantity and composition of the excreted sebum (in words) [8]	effect on sebum production by sebocytes (in words) ([1]; 1 μM)	QUANTITY OF LIPIDS MEASURED ([1]; 1 μM)	REDUCTION IN LIPOGENESIS/CONTROL ([1]; 1 μM)	reduction in lipid secretion ([1]; 1 μM, model immortalized culture of human sebocytes)	activity compared with the pharmaceutical reference (cortisol) ([1]; azelaic acid 1 μM vs cortisol 0.1 μM)
C[C@]12CCC(=O)C=C1CC[C@@H]1[C@@H]2[C@@H](O)C[C@@]2(C)[C@H]1CC[C@]2(O)C(=O)CO [Cortisol]	71	−29%													
O=C(O)CCCCCCCC(=O)O [Azelaic acid, azelaic acid]			improves sebocyte survival	−20%	224	did not cause a significant modification in sebum excretion	inability of azelaic acid to reduce sebum production	reduces the proliferation of human keratinocytes	30	did not modify either the quantity or the composition of the excreted sebum	inhibits sebum production	93	−7%	7%	moderate
